Experimental findings from patent US10472347B2, “Aminopyrazine compounds with A2A antagonist properties” (Merck Sharp & Dohme Corp., priority 2014, dated 2019) are described below.

A word on the Ki: it is the equilibrium dissociation constant of an inhibitor or competing ligand from its target. Higher therefore signals weaker binding.

The experiment addresses T1, human A2a receptor (Homo sapiens, UniProt P29274).
T1 construct: purchased Perkin-Elmer RBHA2AM400UA; host or cells: HEK293 cells (membranes)
Description: A2a competition binding assay, Scintillation Proximity technology. The settings on record: membranes from HEK293 cells expressing human A2a receptor; Ki by Cheng-Prusoff equation. An outline of the steps: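 SPA competition: 0.5 nM tritiated pyrazolotriazolopyrimidine ligand displaced by compound at 3000 to 0.15 nM, 1 h room temperature, human A2a HEK293 membranes pretreated with adenosine deaminase, PBS/10 mM MgCl2 buffer. CGS15943 1 μM defined non-specific binding; EC50 converted to Ki via Cheng-Prusoff.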
Background: SPA uses beads or plates that emit light when radiolabelled molecules are held near them.

T1 sequence (P29274 whole entry): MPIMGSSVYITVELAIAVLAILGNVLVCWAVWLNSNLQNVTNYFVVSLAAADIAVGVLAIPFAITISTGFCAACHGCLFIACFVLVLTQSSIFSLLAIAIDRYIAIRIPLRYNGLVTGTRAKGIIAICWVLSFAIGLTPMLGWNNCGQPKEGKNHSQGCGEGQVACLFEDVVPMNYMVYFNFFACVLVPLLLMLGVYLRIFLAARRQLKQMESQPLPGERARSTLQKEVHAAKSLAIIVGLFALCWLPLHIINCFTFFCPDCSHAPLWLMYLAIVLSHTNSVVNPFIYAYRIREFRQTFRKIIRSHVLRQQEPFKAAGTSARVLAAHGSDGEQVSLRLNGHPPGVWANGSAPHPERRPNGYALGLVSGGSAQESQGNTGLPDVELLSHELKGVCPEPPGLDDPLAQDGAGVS

In turn, `Cc1nc(C(=O)NC2CC(O)c3cccnc32)c(N)nc1-c1ncco1` (stereo not shown) [Ex-223, 3-amino-N-(5-hydroxy-6,7-dihydro-5H-cyclopenta[b]pyridin-7-yl)-6-methyl-5-(1,3-oxazol-2-yl)pyrazine-2-carboxamide] yielded a Ki of 2.98 nM.

Molecule `Cc1nc(C(=O)N[C@@H]2C[C@H]3CC[C@@H]2C3)c(N)nc1-c1ncco1` [Ex-213, 3-amino-N-[(1R,2R,4S)-bicyclo[2.2.1]hept-2-yl]-6-methyl-5-(1,3-oxazol-2-yl)pyrazine-2-carboxamide] returned a Ki of 0.42 nM.

Molecule `Cc1nc(C(=O)NCc2ccno2)c(N)nc1-c1ncco1` [Ex-12, 3-amino-N-(isoxazol-5-ylmethyl)-6-methyl-5-(1,3-oxazol-2-yl)pyrazine-2-carboxamide] gave a Ki of 9.82 nM.

Take `Cc1cnn(-c2nc(N)c(C(=O)NCc3nccc4ccccc34)nc2C)c1` [Ex-342, 3-amino-N-(isoquinolin-1-ylmethyl)-6-methyl-5-(4-methyl-1H-pyrazol-1-yl)pyrazine-2-carboxamide]: the Ki worked out at 122 nM.
